{"source": "paper PMC5306062", "about": "“Pharmacology and toxicology of the novel investigational agent Cantrixil (TRX-E-002-1)” (Cancer Chemotherapy and Pharmacology, 2016)", "key": {"[1]": {"tested_on": "mouse lymphoma L5178Y cells", "experiment": "In vitro mammalian cell mutation assay, thymidine kinase locus", "method": "Genotoxicity testing of TRX-E-002-1 was performed in an ICH-compliant test battery (see ICH Guideline S2A), comprising an in vitro bacterial reverse mutation test, an in vitro mammalian cell mutation assay and an in vivo rodent bone marrow micronucleus assay. The assays were performed in compliance with GLP regulations.\nThe in vitro mammalian cell mutation assay utilised the forward mutation system at the thymidine kinase locus of the mouse lymphoma L5178Y cells using a microtitre cloning technique. TRX-E-002-1 was tested in three experimental conditions: 3-h incubation at 37 °C with and without metabolic activation system (Aroclor-induced rat liver S9 mix), and a 24-h incubation without metabolic activation (i.e. continuous treatment)."}, "[2]": {"tested_on": "micronucleated polychromatic erythrocytes (PCEs) in bone marrow", "experiment": "Bone marrow micronucleus test", "assay_type": "in vivo, ARC(S) Swiss mice", "settings": "positive control group", "method": "The assays were performed in compliance with GLP regulations.\nThe bone marrow micronucleus test was the in vivo part of the ICH genotoxicity testing battery and was conducted in ARC(S) Swiss mice. Eight groups of mice (10/sex/group) were given an intraperitoneal injection of vehicle (20% w/v SBECD) or Cantrixil at 50, 200 or 400 mg/kg and were killed 24 or 48 h later. Dimethyl-1,2 benzanthracene was used as the positive control. After preparation of the bone marrow cells, the number of micronucleated polychromatic erythrocytes (PCEs) was determined in 4000 PCEs per animal, and the proportion of PCEs in the total erythrocyte population in bone marrow was calculated from the examination of at least 500 erythrocytes as an index of bone marrow toxicity. […] The proportion of PCEs in the total erythrocyte population was decreased in both sexes at the 200 and 400 mg/kg doses at both kill times. TRX-E-002-1 is therefore considered clastogenic in this system at the described concentrations in vivo [the equivalent 200/400 mg/kg dose in a […] is 16.2 mg/kg (600 mg/m^2)/32.4 mg/kg (1200 mg/m^2) in a 60-kg human]."}, "[3]": {"tested_on": "c-Jun N-terminal kinase", "set-up": "method as in PMID 27196760", "settings": "cited from earlier work"}, "[4]": {"tested_on": "disseminated ovarian cancer model", "experiment": "Disseminated ovarian cancer model, intraperitoneal dosing", "assay_type": "in vivo, mice", "description": "In vivo, TRX-E-002-1, formulated in 20% SBECD, was active in a disseminated ovarian cancer model and a recurrent ovarian cancer model in which tumour recurrence is investigated following initial treatment of the OCSC2-inoculated mice with paclitaxel. In both models, TRX-E-002-1 inhibited tumour growth following once daily intraperitoneal administration.\nThe combination of TRX-E-002-1 and cisplatin was investigated in the murine model of disseminated ovarian cancer."}, "[5]": {"experiment": "Dog 14-day pilot toxicity study with toxicokinetics, intraperitoneal", "settings": "dog M + F, Day 1", "protocol": "For the dog 14-day pilot study, male and female beagle dogs were dosed once daily with intraperitoneal injections of vehicle (1:2 dilutions of 20% SBECD in 0.9% saline) or Cantrixil (10, 30 or 100 mg/kg) for 14 days. The doses were administered via an implanted catheter."}, "[6]": {"experiment": "Rat pharmacokinetics after single intraperitoneal injection of 100 mg/kg", "assay_type": "in vivo, Sprague–Dawley rats", "method": "The pharmacokinetics of TRX-E-002-1 was evaluated in male female Sprague–Dawley rats following a single intraperitoneal injection of 100 mg/kg TRX-E-002-1 in 20% SBECD vehicle. Absorption was rapid, with C max mean plasma concentrations reached 0.25/1 h after dosing in female/male rats. […] Mean plasma levels decreased to below the limit of quantification by 24 h (not shown). The AUC0−∞ value was 29,537 and 44,702 ng h/mL in female and male rats, respectively (Table 2). High tissue levels were observed 0.5–6 h after dosing, with levels higher than the plasma concentration in pancreas, ovaries, large intestine, skin, kidneys, liver, stomach and adrenal glands (not shown). Treatment of plasma and tissue samples with glucuronidase indicated the presence of low levels of a glucuronide conjugate of TRX-E-002-1 (not shown). Other metabolic pathways have not yet been investigated. […] Parent drug was excreted in the urine and faeces, and high levels of the glucuronide metabolite were found in the faeces.\nTissue concentrations of total drug (parent + glucuronide) were also similar to those in plasma except in liver, where they were 2–3 times higher."}, "[7]": {"experiment": "Second dog pharmacokinetic study, 10 mg/kg intraperitoneal, four dogs", "assay_type": "in vivo, beagle dogs", "settings": "dog M + F, 10 mg/kg i.p., second study", "method": "In beagle dogs, plasma concentrations of unconjugated TRX-E-002-1 at early time points (1–4 h’ post-dose) were 76–93% of the total levels (parent + glucuronide). At 8 h, the plasma concentrations of the glucuronide metabolites were similar to those of parent drug. By 24 h’ post-dose, the concentrations of TRX-E-002-1-glucuronide in plasma and gastrointestinal tissues (except colon) were 2–12 times higher than those of the parent drug. The increased levels of TRX-E-0021-glucuronide relative to those of parent drug at 24 h post-dose may reflect slower elimination of the glucuronide metabolites."}, "[8]": {"settings": "10 μM SP600125, OCSC2 cells, Western blot"}, "[9]": {"settings": "female rats, 100 mg/kg i.p., plasma"}}, "note": "Where two headings read alike, the source gives them in different places.", "data": [{"compound": "O=P1(N(CCCl)CCCl)NCCCO1", "note": "(centres unmarked) [cyclophosphamide]", "values": [{"measurement": "mutant frequency", "setting": "[1]; positive control, presence of S9", "result": "expected increases"}]}, {"compound": "Cc1c2ccccc2c(C)c2c1ccc1ccccc12", "note": "[Dimethyl-1,2 benzanthracene, reference compound]", "values": [{"measurement": "frequency of micronucleated PCEs", "setting": "[2]", "result": "statistically significant increase"}, {"measurement": "proportion of PCEs", "setting": "[2]", "result": "reduction"}]}, {"compound": "Oc1c2ccccc2c2c3c(cccc13)N=N2", "note": "[SP600125]", "values": [{"measurement": "TRX-E-002-1-induced phosphorylation of c-Jun", "setting": "[3]; [8]", "result": "inhibited"}, {"measurement": "phosphorylation of ERK", "setting": "[3]; [8]", "result": "without affecting"}, {"measurement": "effect on anti-tumour activity of 0.245 μM TRX-E-002-1", "setting": "[3]; OCSC2 cells", "result": "blocked"}]}, {"compound": "N.N.[Cl][Pt][Cl]", "note": "[cisplatin, reference compound]", "values": [{"measurement": "tumour growth during the 16-day treatment period", "setting": "[4]; TRX-E-002-1 100 mg/kg once daily, cisplatin 5 mg/kg once weekly, or both", "result": "significantly inhibited"}, {"measurement": "tumour growth during the 5-week post-treatment period", "setting": "[4]; after 16-day treatment, TRX-E-002-1 100 mg/kg once daily, cisplatin 5 mg/kg once weekly, or both", "result": "decreased"}]}, {"compound": "COS(C)(=O)=O", "note": "[methyl methanesulfonate]", "values": [{"measurement": "mutant frequency", "setting": "[1]", "result": "expected increases"}]}, {"compound": "COc1cc(C2COc3c(ccc(O)c3C)C2c2ccc(O)cc2)cc(OC)c1O", "note": "(racemic) [TRX-E-002]", "values": [{"measurement": "AUC0−∞", "setting": "[5]; 10 mg/kg i.p.", "result": 4395, "unit": "ng·h/mL"}, {"measurement": "AUClast", "setting": "[5]; 10 mg/kg i.p.", "result": 4390, "unit": "ng·h/mL"}, {"measurement": "C max", "setting": "[5]; 10 mg/kg i.p.", "result": 626, "unit": "ng/mL"}, {"measurement": "T max", "setting": "[5]; 10 mg/kg i.p.", "result": 2.0, "unit": "h"}, {"measurement": "T ½", "setting": "[5]; 10 mg/kg i.p.", "result": 2.6, "unit": "h"}, {"measurement": "AUC0−∞", "setting": "[5]; 30 mg/kg i.p.", "result": "11,300 ng h/mL"}, {"measurement": "AUClast", "setting": "[5]; 30 mg/kg i.p.", "result": 8770, "unit": "ng·h/mL"}, {"measurement": "T max", "setting": "[5]; 30 mg/kg i.p.", "result": 2.0, "unit": "h"}, {"measurement": "T ½", "setting": "[5]; 30 mg/kg i.p.", "result": 2.5, "unit": "h"}, {"measurement": "AUC0−∞", "setting": "[5]; 100 mg/kg i.p.", "result": "58,550 ng h/mL"}, {"measurement": "AUClast", "setting": "[5]; 100 mg/kg i.p.", "result": "58,500 ng h/mL"}, {"measurement": "C max", "setting": "[5]; 100 mg/kg i.p.", "result": 6795, "unit": "ng/mL"}, {"measurement": "T max", "setting": "[5]; 100 mg/kg i.p.", "result": 1.25, "unit": "h"}, {"measurement": "T ½", "setting": "[5]; 100 mg/kg i.p.", "result": 2.2, "unit": "h"}, {"measurement": "AUClast", "setting": "[6]; [9]", "result": "29,396 ng h/mL"}, {"measurement": "C max", "setting": "[6]; [9]", "result": 8355, "unit": "ng/mL"}, {"measurement": "elimination half-life", "setting": "[6]; rats, interspecies comparison", "result": "about 2.5 h"}, {"measurement": "AUC0−∞", "setting": "[7]", "result": 1633, "unit": "ng·h/mL"}, {"measurement": "AUClast", "setting": "[7]", "result": 1630, "unit": "ng·h/mL"}, {"measurement": "C max", "setting": "[7]", "result": 425, "unit": "ng/mL"}, {"measurement": "T max", "setting": "[7]", "result": 2, "unit": "h"}, {"measurement": "T ½", "setting": "[7]", "result": 2.6, "unit": "h"}, {"measurement": "tumour growth", "setting": "[4]; 100 mg/kg i.p. once daily in 20% SBECD for 13–14 days", "result": "significantly inhibited"}]}]}
